Test results reported in the supplement of paper PMC6045584.
± gives the standard deviation of the averaged measurements.

Legend:
[1] = compound: CC(=O)NCC(=O)N1[C@@H]2CC[C@H]1c1ccc(Nc3ncc(C(F)(F)F)c(NC4CCC4)n3)cc12; test: surviving fraction relative to DMSO-only wells; higher = less growth inhibition; conditions: exposure time: 5 days
Summary of the method: (§1)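 Continuous five-day exposure to inhibitors at 0.5, 1, 5, 10, 50, 100, 500 and 1000 nM started 24 hours after log-phase tumour cell lines were seeded at 250–500 cells per well in 384-well plates. Luminescence was read after 10 minutes at room temperature. Viability is given as surviving fraction, meaning CellTiter-Glo luminescence normalised to the median of DMSO-only wells.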

PACLITAXEL [2] = compound: T1, CC(=O)O[C@H]1C(=O)[C@@]2(C)[C@H]([C@H](OC(=O)c3ccccc3)[C@]3(O)C[C@H](OC(=O)[C@H](O)[C@@H](NC(=O)c4ccccc4)c4ccccc4)C(C)=C1C3(C)C)[C@]1(OC(C)=O)CO[C@@H]1C[C@@H]2O [PACLITAXEL]; test: as above; conditions: exposure time: 5 days
Summary of the method: as §1

OSI-906 [3] = compound: T2, C[C@]1(O)C[C@@H](c2nc(-c3ccc4ccc(-c5ccccc5)nc4c3)c3c(N)nccn32)C1 [OSI-906]; test: as above; conditions: exposure time: 5 days
Summary of the method: as §1

CAMPTOTHECIN [4] = compound: T3, CC[C@@]1(O)C(=O)OCc2c1cc1n(c2=O)Cc2cc3ccccc3nc2-1 [CAMPTOTHECIN]; test: as above; conditions: exposure time: 5 days
Summary of the method: as §1

CARBOPLATIN [5] = compound: T4, O=C(O)C1(C(=O)O)CCC1.[NH2-].[NH2-].[Pt+2] [CARBOPLATIN]; test: as above; conditions: exposure time: 5 days
Summary of the method: as §1

CELECOXIB [6] = compound: T5, Cc1ccc(-c2cc(C(F)(F)F)nn2-c2ccc(S(N)(=O)=O)cc2)cc1 [CELECOXIB]; test: as above; conditions: exposure time: 5 days
Summary of the method: as §1

GEFITINIB [7] = compound: T6, COc1cc2ncnc(Nc3ccc(F)c(Cl)c3)c2cc1OCCCN1CCOCC1 [GEFITINIB]; test: as above; conditions: exposure time: 5 days
Summary of the method: as §1

[8] = compound: CC(=O)c1c(C)c2cnc(Nc3ccc(N4CCNCC4)cn3)nc2n(C2CCCC2)c1=O; test: as above; conditions: exposure time: 5 days
Summary of the method: as §1

YM155 [9] = compound: T7, COCC[n+]1c2c(n(Cc3cnccn3)c1C)C(=O)c1ccccc1C2=O [YM155]; test: as above; conditions: exposure time: 5 days
Summary of the method: as §1

[10] = compound: CC(=O)NCC(=O)N1[C@@H]2CC[C@H]1c1ccc(Nc3ncc(C(F)(F)F)c(NC4CCC4)n3)cc12; test: area under dose-response curve of surviving fraction (unscaled, Aref=0) (surviving fraction x log10(nM)); higher = more resistant; conditions: exposure time: 5 days; dose range 0.5-1000 nM
Summary of the method: (§2)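 Each tumour cell line was screened three times in 384-well plates, receiving eight inhibitor concentrations from 0.5 to 1000 nM for five days. CellTiter-Glo luminescence gave viability, normalised to DMSO-only wells. Using the drc R package, surviving fractions were fitted with 3-parameter logistic dose-response curves, and the unscaled activity area over log10 dose (Aref = 0) was taken as the area under the curve.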

PACLITAXEL [11] = compound: T1, PACLITAXEL; test: as above; conditions: exposure time: 5 days; dose range 0.5-1000 nM
Summary of the method: as §2

OSI-906 [12] = compound: T2, OSI-906; test: as above; conditions: exposure time: 5 days; dose range 0.5-1000 nM
Summary of the method: as §2

CAMPTOTHECIN [13] = compound: T3, CAMPTOTHECIN; test: as above; conditions: exposure time: 5 days; dose range 0.5-1000 nM
Summary of the method: as §2

CARBOPLATIN [14] = compound: T4, CARBOPLATIN; test: as above; conditions: exposure time: 5 days; dose range 0.5-1000 nM
Summary of the method: as §2

CELECOXIB [15] = compound: T5, CELECOXIB; test: as above; conditions: exposure time: 5 days; dose range 0.5-1000 nM
Summary of the method: as §2

GEFITINIB [16] = compound: T6, GEFITINIB; test: as above; conditions: exposure time: 5 days; dose range 0.5-1000 nM
Summary of the method: as §2

[17] = compound: CC(=O)c1c(C)c2cnc(Nc3ccc(N4CCNCC4)cn3)nc2n(C2CCCC2)c1=O; test: as above; conditions: exposure time: 5 days; dose range 0.5-1000 nM
Summary of the method: as §2

YM155 [18] = compound: T7, YM155; test: as above; conditions: exposure time: 5 days; dose range 0.5-1000 nM
Summary of the method: as §2

NCIH441 LUNG gave a surviving fraction ([1]; 0.5 nM) of 0.945 ± 0.064, a surviving fraction ([1]; 1 nM) of 0.954 ± 0.056 and a surviving fraction ([1]; 5 nM) of 0.939 ± 0.065. For the same test system, the surviving fraction ([1]; 10 nM) was 0.927 ± 0.12, the surviving fraction ([1]; 50 nM) was 0.991 ± 0.022 and the surviving fraction ([1]; 100 nM) was 0.856 ± 0.049. It also gave a surviving fraction ([1]; 500 nM) of 0.626 ± 0.08, a surviving fraction ([1]; 1000 nM) of 0.588 ± 0.0087 and a surviving fraction (PACLITAXEL [2]; 0.5 nM) of 0.961 ± 0.12. For the same test system, the surviving fraction (PACLITAXEL [2]; 1 nM) was 0.93 ± 0.046, the surviving fraction (PACLITAXEL [2]; 5 nM) was 0.529 ± 0.0097 and the surviving fraction (PACLITAXEL [2]; 10 nM) was 0.429 ± 0.032. It also gave a surviving fraction (PACLITAXEL [2]; 50 nM) of 0.261 ± 0.013, a surviving fraction (PACLITAXEL [2]; 100 nM) of 0.303 ± 0.018 and a surviving fraction (PACLITAXEL [2]; 500 nM) of 0.284 ± 0.013. It also gave a surviving fraction (PACLITAXEL [2]; 1000 nM) of 0.304 ± 0.02, a surviving fraction (OSI-906 [3]; 0.5 nM) of 0.976 ± 0.058 and a surviving fraction (OSI-906 [3]; 1 nM) of 1 ± 0.033. The surviving fraction (OSI-906 [3]; 5 nM) was 0.993 ± 0.07, the surviving fraction (OSI-906 [3]; 10 nM) was 0.969 ± 0.03 and the surviving fraction (OSI-906 [3]; 50 nM) was 1.04 ± 0.034. For the same test system, the surviving fraction (OSI-906 [3]; 100 nM) was 1.03 ± 0.028, the surviving fraction (OSI-906 [3]; 500 nM) was 0.841 ± 0.019 and the surviving fraction (OSI-906 [3]; 1000 nM) was 0.737 ± 0.048. For the same test system, the surviving fraction (CAMPTOTHECIN [4]; 0.5 nM) was 0.951 ± 0.045, the surviving fraction (CAMPTOTHECIN [4]; 1 nM) was 0.896 ± 0.03 and the surviving fraction (CAMPTOTHECIN [4]; 5 nM) was 0.743 ± 0.019. The surviving fraction (CAMPTOTHECIN [4]; 10 nM) was 0.474 ± 0.031, the surviving fraction (CAMPTOTHECIN [4]; 50 nM) was 0.201 ± 0.02 and the surviving fraction (CAMPTOTHECIN [4]; 100 nM) was 0.114 ± 0.016. For the same test system, the surviving fraction (CAMPTOTHECIN [4]; 500 nM) was 0.0587 ± 0.0095, the surviving fraction (CAMPTOTHECIN [4]; 1000 nM) was 0.044 ± 0.003 and the surviving fraction (CARBOPLATIN [5]; 0.5 nM) was 1.08 ± 0.027. For the same test system, the surviving fraction (CARBOPLATIN [5]; 1 nM) was 1.12 ± 0.063, the surviving fraction (CARBOPLATIN [5]; 5 nM) was 1.08 ± 0.049 and the surviving fraction (CARBOPLATIN [5]; 10 nM) was 1.13 ± 0.093. It also gave a surviving fraction (CARBOPLATIN [5]; 50 nM) of 1.07 ± 0.2, a surviving fraction (CARBOPLATIN [5]; 100 nM) of 0.961 ± 0.091 and a surviving fraction (CARBOPLATIN [5]; 500 nM) of 1.02 ± 0.16. The surviving fraction (CARBOPLATIN [5]; 1000 nM) was 1.04 ± 0.21, the surviving fraction (CELECOXIB [6]; 0.5 nM) was 1.16 ± 0.019 and the surviving fraction (CELECOXIB [6]; 1 nM) was 1.19 ± 0.043. The surviving fraction (CELECOXIB [6]; 5 nM) was 1.1 ± 0.11, the surviving fraction (CELECOXIB [6]; 10 nM) was 1.11 ± 0.035 and the surviving fraction (CELECOXIB [6]; 50 nM) was 1.11 ± 0.068. For the same test system, the surviving fraction (CELECOXIB [6]; 100 nM) was 1.06 ± 0.17, the surviving fraction (CELECOXIB [6]; 500 nM) was 1.06 ± 0.14 and the surviving fraction (CELECOXIB [6]; 1000 nM) was 1.1 ± 0.19. For the same test system, the surviving fraction (GEFITINIB [7]; 0.5 nM) was 1.17 ± 0.048, the surviving fraction (GEFITINIB [7]; 1 nM) was 1.15 ± 0.064 and the surviving fraction (GEFITINIB [7]; 5 nM) was 1.07 ± 0.089. For the same test system, the surviving fraction (GEFITINIB [7]; 10 nM) was 1.114 ± 0.0055, the surviving fraction (GEFITINIB [7]; 50 nM) was 1.07 ± 0.18 and the surviving fraction (GEFITINIB [7]; 100 nM) was 1.12 ± 0.18. The surviving fraction (GEFITINIB [7]; 500 nM) was 1.01 ± 0.21, the surviving fraction (GEFITINIB [7]; 1000 nM) was 0.963 ± 0.058 and the surviving fraction ([8]; 0.5 nM) was 1.16 ± 0.055. The surviving fraction ([8]; 1 nM) was 1.1 ± 0.056, the surviving fraction ([8]; 5 nM) was 1.064 ± 0.0076 and the surviving fraction ([8]; 10 nM) was 1.07 ± 0.02. The surviving fraction ([8]; 50 nM) was 1.08 ± 0.093, the surviving fraction ([8]; 100 nM) was 1.09 ± 0.052 and the surviving fraction ([8]; 500 nM) was 1.15 ± 0.14. The surviving fraction ([8]; 1000 nM) was 1 ± 0.13, the surviving fraction (YM155 [9]; 0.5 nM) was 0.991 ± 0.038 and the surviving fraction (YM155 [9]; 1 nM) was 1.05 ± 0.024. It also gave a surviving fraction (YM155 [9]; 5 nM) of 0.547 ± 0.064, a surviving fraction (YM155 [9]; 10 nM) of 0.284 ± 0.023 and a surviving fraction (YM155 [9]; 50 nM) of 0.0333 ± 0.0011. For the same test system, the surviving fraction (YM155 [9]; 100 nM) was 0.0273 ± 0.00058, the surviving fraction (YM155 [9]; 500 nM) was 0.023 ± 0.001 and the surviving fraction (YM155 [9]; 1000 nM) was 0.0267 ± 0.0011. For the same test system, the “area under dose-response curve” value [10] was 2.94, the “area under dose-response curve” value (PACLITAXEL [11]) was 1.56 and the “area under dose-response curve” value (OSI-906 [12]) was 3.21. The “area under dose-response curve” value (CAMPTOTHECIN [13]) was 1.41, the “area under dose-response curve” value (CARBOPLATIN [14]) was 3.51 and the “area under dose-response curve” value (CELECOXIB [15]) was 3.66. For the same test system, the “area under dose-response curve” value (GEFITINIB [16]) was 3.59, the “area under dose-response curve” value [17] was 3.59 and the “area under dose-response curve” value (YM155 [18]) was 1.12.
